Assay results taken from US10745390B2, “Small molecule activators of mitochondrial function” (THE TRUSTEES OF THE UNIVERSITY OF PENNSYLVANIA, priority 2008, dated 2020).

The compounds below were run on yeast lacking Yfh1p (assay: Yeast-based screening assay (WST-1 tetrazolium dye reduction)). Conditions: glycerol medium, 72 h, OD450, single dose 50 uM, activity threshold >1.32 fold increase in absorbance.
Type: cell-based
Protocol: The aim of this assay is to identify compounds that can improve mitochondrial function in yeast lacking Yfh1p grown in a non-fermentable growth medium. The yeast Yfh1p expression construct used in this study has a galactose-inducible, glucose-repressible promoter driving Yfh1p production. Yfh1p is expressed when yeast are grown in the presence of galactose and inhibited when they are grown in the presence of dextrose. Growing the cells in the presence of dextrose not only turns off the expression of Yfh1p, but also leads to the depletion of Yfh1p in the cells. Transferring the Yfh1p-depleted cells into a non-fermentable, glycerol-based medium dictates that the yeast must use an oxidative pathway. […] Cleavage of the tetrazolium salt to formazan is accompanied by an increase in absorbance at 450 nm.
Compounds in the single dose assay were evaluated on the basis of Fold Induction compared to yeast only, and those in the dose response assay on percent activation, i.e. percent induction of tetrazolium dye reduction in yeast grown in a non-fermentable growth medium. Percent activation was calculated using the optical density in control wells with cells treated with positive control compound (25 uM methyl 4-(1, 2, 4, 5-tetraazin-3-yl) phenyl ether (MLSMR External ID: MLS000550612; PubChem SID: 14718875)) as full induction of tetrazolium dye reduction (100% activation), and wells with cells grown in medium without methyl 4-(1, 2, 4, 5-tetraazin-3-yl) phenyl ether as an indicator of 0% activation. Library compounds were screened at 50 uM. From the 50 uM single dose assay, 1250 compounds with significant tetrazolium dye reduction were selected for confirmatory dose response assay. These compounds were screened in a 10-point dilution series ranging from 0.01 to 100 uM.
The following screening protocol was followed. Yeast cells containing an inducible/repressible promoter for Yfh1p expression were cultured in induction medium (Yfh1 on) with Galactose as the carbon source, and then shifted to repression medium (Yfh1 off) with Dextrose as the carbon source (for 24 hours) to allow Yfh1 protein to decay. The cells were then incubated for 24 h in respiration-only medium (Yfh1 off) with Glycerol as the carbon source to allow cells to equilibrate, and then plated in 384 well plates in respiration-only medium (Yfh1 off) with glycerol as carbon source, in the presence of Tetrazolium dye (WST-1) for 72 hours.
Preparation of Assay • 1. Cells were streaked out on a YPGal agar plate and grown inverted for 3 days at 30 C. • 2. A colony was selected and 10 mL of YPGal medium inoculated and grown over night at 30 C with shaking. • 3. The cells were counted on a coulter counter, centrifuged at 1400 g for 5 min in dextrose (CSMM-D) medium, washed twice to remove all galactose, and resuspended in CSMM-D medium at a cell density of 2 to the power of 5 cells/mL. • 4. Frozen stocks were prepared at this point, in dextrose medium. For these dextrose stock solutions, enough culture was grown in dextrose media over night with shaking at 30 C, to get a cell density of ˜2 to the power of 7 cells/mL. The cells were centrifuged at 1400 g for 5 min and the pellet resuspended in glycerol freezing medium at a cell density of 2 to the power of 8 cells/mL. • 5. The day before the screen, frozen culture was thawed at room temperature and resuspended in glycerol (CSMM-G) medium. • 6. The culture was grown over night at 30 C with shaking and the cells counted and diluted in CSMM-G medium for a final cell density of 4 to the power of 6 cells/mL. • 7. Methyl 4-(1, 2, 4, 5-tetraazin-3-yl) phenyl ether (positive control), CSMM-G medium alone (negative control) and compounds were plated with DMSO at 200× concentration (final concentrations: methyl 4-(1, 2, 4, 5-tetraazin-3-yl) phenyl ether 25 uM, compounds 50 uM, DMSO 0.5%) in 384-well plates: 125 nL/well. For the dose response assay, compounds were plated in a 10-point dilution series ranging from 0.01 to 100 uM, at 1% DMSO. • 8. […]

| Structure (SMILES) | active in the screen (tetrazolium dye reduction) |
| --- | --- |
| CCCC(=O)NC(c1ccco1)c1cc([N+](=O)[O-])c2cccnc2c1O (centres unmarked) [N-[2-furyl(8-hydroxy-5-nitro-7-quinolinyl)methyl]butanamide] | active |
| CCC(=O)NC(c1ccc(OC)c(OC)c1)c1cc(Cl)c2cccnc2c1O (centres unmarked) [N-[(5-chloro-8-hydroxyquinolin-7-yl)-(3,4-dimethoxyphenyl)methyl]propanamide] | active |
| CCC(=O)NC(c1ccc(OC)cc1)c1cc(Cl)c2cccnc2c1O (centres unmarked) [N-[(5-chloro-8-hydroxyquinolin-7-yl)-(4-methoxyphenyl)methyl]propanamide] | active |
| CCC(=O)NC(c1ccc(C)cc1)c1cc([N+](=O)[O-])c2cccnc2c1O (centres unmarked) [N-[(8-Hydroxy-5-nitro-quinolin-7-yl)-p-tolyl-methyl]-propionamide] | active |
| CC(=O)NC(c1cccs1)c1cc([N+](=O)[O-])c2cccnc2c1O (centres unmarked) [N-[(8-hydroxy-5-nitro-quinolin-7-yl)-thiophen-2-yl-methyl]-acetamide] | active |
| CCC(=O)NC(c1cccs1)c1cc([N+](=O)[O-])c2cccnc2c1O (centres unmarked) [N-[(8-hydroxy-5-nitro-quinolin-7-yl)-thiophen-2-yl-methyl]-propionamide] | active |
| CCCC(=O)NC(c1cccs1)c1cc([N+](=O)[O-])c2cccnc2c1O (centres unmarked) [N-[(8-hydroxy-5-nitroquinolin-7-yl)-thiophen-2-ylmethyl]butanamide] | active |
| CCCCC(=O)NC(c1ccccc1OC)c1ccc2cccnc2c1O (centres unmarked) [N-[(8-hydroxyquinolin-7-yl)-(2-methoxyphenyl)methyl]pentanamide] | active |

These compounds were tested on I154F FA cells (assay: I154F frataxin point-mutation model, rescue from FAC and/or BSO). Conditions: not given.
Type: cell-based, murine
Description: 2. Preliminary testing in the I154F frataxin point-mutation model determines whether test compounds can rescue I154F FA cells from lethal concentrations of FAC and/or BSO. Among the mammalian-cell models that have, or recapitulate, the genetic defects underlying FA, by far the most robust (and best validated) is the I154F murine frataxin point-mutation model developed by Puccio and colleagues (Calmels, N. et al.), the first cellular model based on frataxin missense mutations that reproduces spontaneously the defects associated with Friedreich ataxia (PLoS One 4, e6379 (2009)). […] This model is also extremely stable, with phenotypes unchanged after months of continuous culture. In contrast, the mutations in available primary human FA fibroblasts are GAA repeat expansions in the first intron of the FXN gene; occasional cells in which these expansions contract have a growth advantage and take over the culture, diluting the phenotype and increasing variance in various measures of compound efficacy.
In another screen, testing was conducted in the I154F point-mutation model as described above, to determine whether test compounds could rescue I154F FA cells from lethal or sublethal concentrations of FAC and/or BSO. Effective in this screen were the following compounds: N-[(5-chloro-8-hydroxyquinolin-7-yl)-thiophen-2-ylmethyl]-3-phenylpropanamide, N-[(5-chloro-8-hydroxyquinolin-7-yl)-thiophen-2-ylmethyl]pentanamide, N-[(5-chloro-8-hydroxyquinolin-7-yl)-furan-2-ylmethyl]-3-phenylpropanamide, N-[(5-chloro-8-hydroxyquinolin-7-yl)-furan-2-ylmethyl]propanamide, N-[(5-chloro-8-hydroxyquinolin-7-yl)-furan-2-ylmethyl]pentanamide, N-[(5-chloro-8-hydroxyquinolin-7-yl)-tolyl]-3-phenylpropanamide, N-[(5-chloro-8-hydroxyquinolin-7-yl)-(3-methoxyphenyl)methyl]-3-phenylpropanamide, N-[(5-chloro-8-hydroxyquinolin-7-yl)-(4-dimethylaminophenyl)methyl]-3-phenylpropanamide, N-[(5-chloro-8-hydroxyquinolin-7-yl)-(4-chlorophenyl)methyl]-3-phenylpropanamide, N-[(5-chloro-8-hydroxyquinolin-7-yl)-(3-chlorophenyl)methyl]-3-phenylpropanamide, N-[(5-chloro-8-hydroxyquinolin-7-yl)-(2-chlorophenyl)methyl]-3-phenylpropanamide, N-[(5-chloro-8-hydroxyquinolin-7-yl)-(3,4-dimethoxyphenyl)methyl]-3-phenylpropanamide, N-[(5-chloro-8-hydroxyquinolin-7-yl)-(2,4-dimethoxyphenyl)methyl]-3-phenylpropanamide, N-[(5-chloro-8-hydroxyquinolin-7-yl)-(3,4,5-trimethoxyphenyl)methyl]-3-phenylpropanamide, N-[(5-chloro-8-hydroxyquinolin-7-yl)-(2-bromophenyl)methyl]-3-phenylpropanamide, N-[(5-chloro-8-hydroxyquinolin-7-yl)-p-tolyl-methyl]-3-phenylpropanamide, N-[(5-chloro-8-hydroxyquinolin-7-yl)-(2-hydroxyphenyl)methyl]-3-phenylpropanamide (1a-18), and N-[(5-chloro-8-hydroxyquinolin-7-yl)-(4-methoxyphenyl)methyl]-3-phenylpropanamide.

| Structure (SMILES) | rescue of I154F FA cells from lethal or sublethal concentrations of FAC and/or BSO |
| --- | --- |
| COc1ccc(C(NC(=O)CCc2ccccc2)c2cc(Cl)c3cccnc3c2O)c(OC)c1 (centres unmarked) [N-[(5-chloro-8-hydroxyquinolin-7-yl)-(2,4-dimethoxyphenyl)methyl]-3-phenylpropanamide] | Effective |
| O=C(CCc1ccccc1)NC(c1ccccc1Br)c1cc(Cl)c2cccnc2c1O (centres unmarked) [N-[(5-chloro-8-hydroxyquinolin-7-yl)-(2-bromophenyl)methyl]-3-phenylpropanamide] | Effective |
| O=C(CCc1ccccc1)NC(c1ccccc1Cl)c1cc(Cl)c2cccnc2c1O (centres unmarked) [N-[(5-chloro-8-hydroxyquinolin-7-yl)-(2-chlorophenyl)methyl]-3-phenylpropanamide] | Effective |
| O=C(CCc1ccccc1)NC(c1ccccc1O)c1cc(Cl)c2cccnc2c1O (centres unmarked) [N-[(5-chloro-8-hydroxyquinolin-7-yl)-(2-hydroxyphenyl)methyl]-3-phenylpropanamide] | Effective |
| COc1cc(C(NC(=O)CCc2ccccc2)c2cc(Cl)c3cccnc3c2O)cc(OC)c1OC (centres unmarked) [N-[(5-chloro-8-hydroxyquinolin-7-yl)-(3,4,5-trimethoxyphenyl)methyl]-3-phenylpropanamide] | Effective |
| COc1ccc(C(NC(=O)CCc2ccccc2)c2cc(Cl)c3cccnc3c2O)cc1OC (centres unmarked) [N-[(5-chloro-8-hydroxyquinolin-7-yl)-(3,4-dimethoxyphenyl)methyl]-3-phenylpropanamide] | Effective |
| O=C(CCc1ccccc1)NC(c1cccc(Cl)c1)c1cc(Cl)c2cccnc2c1O (centres unmarked) [N-[(5-chloro-8-hydroxyquinolin-7-yl)-(3-chlorophenyl)methyl]-3-phenylpropanamide] | Effective |
| COc1cccc(C(NC(=O)CCc2ccccc2)c2cc(Cl)c3cccnc3c2O)c1 (centres unmarked) [N-[(5-chloro-8-hydroxyquinolin-7-yl)-(3-methoxyphenyl)methyl]-3-phenylpropanamide] | Effective |
| O=C(CCc1ccccc1)NC(c1ccc(Cl)cc1)c1cc(Cl)c2cccnc2c1O (centres unmarked) [N-[(5-chloro-8-hydroxyquinolin-7-yl)-(4-chlorophenyl)methyl]-3-phenylpropanamide] | Effective |
| CN(C)c1ccc(C(NC(=O)CCc2ccccc2)c2cc(Cl)c3cccnc3c2O)cc1 (centres unmarked) [N-[(5-chloro-8-hydroxyquinolin-7-yl)-(4-dimethylaminophenyl)methyl]-3-phenylpropanamide] | Effective |
| COc1ccc(C(NC(=O)CCc2ccccc2)c2cc(Cl)c3cccnc3c2O)cc1 (centres unmarked) [N-[(5-chloro-8-hydroxyquinolin-7-yl)-(4-methoxyphenyl)methyl]-3-phenylpropanamide] | Effective |
| O=C(CCc1ccccc1)NC(c1ccco1)c1cc(Cl)c2cccnc2c1O (centres unmarked) [N-[(5-chloro-8-hydroxyquinolin-7-yl)-furan-2-ylmethyl]-3-phenylpropanamide] | Effective |
| CCCCC(=O)NC(c1ccco1)c1cc(Cl)c2cccnc2c1O (centres unmarked) [N-[(5-chloro-8-hydroxyquinolin-7-yl)-furan-2-ylmethyl]pentanamide] | Effective |
| CCC(=O)NC(c1ccco1)c1cc(Cl)c2cccnc2c1O (centres unmarked) [N-[(5-chloro-8-hydroxyquinolin-7-yl)-furan-2-ylmethyl]propanamide] | Effective |
| Cc1ccc(C(NC(=O)CCc2ccccc2)c2cc(Cl)c3cccnc3c2O)cc1 (centres unmarked) [N-[(5-chloro-8-hydroxyquinolin-7-yl)-p-tolyl-methyl]-3-phenylpropanamide] | Effective |
